Tests used:
[1] = system: histamine-induced contractions in guinea pig ileum; experiment: Inhibition of histamine-induced contractions in guinea pig ileum (Assay 3); settings: Cavia porcellus, histamine 1.7 μM, read-out: Inhibition of histamine-induced contraction (%)
In short: (§1)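 Isolated male guinea pig ileum strips in Krebs at 32° C, pH 7.4, 1 g resting tension, isotonic recording. Contraction to test compound (3 and 30 μM) alone recorded, then inhibition of responses to histamine 1.7 μM or 5-HT 2.6 μM (~EC60-70, 5 min) measured in its continued presence.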

WI-38 cells = experiment: Viability of WI-38 cells, Alamar Blue (Assay 5); assay type: cell-based, human
In short: (§2)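 WI-38 fibroblasts stimulated overnight at 37 °C with 1 nM IL-1α plus test compound at 3 and 30 μM in MEM with 10% FBS, pH 7.3; released PGE2 in supernatant quantified by radioimmunoassay as percent inhibition. Viability then checked by Alamar Blue, 4 h at 37 °C, fluorescence ex 530/em 590 nm.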

[2] = system: 5-HT-induced contractions in guinea pig ileum; experiment: Inhibition of 5-HT-induced contractions in guinea pig ileum (Assay 3); settings: Cavia porcellus, 5-HT 2.6 μM, read-out: Inhibition of 5-HT-induced contraction (%)
In short: as §1

[3] = system: IL-1α-induced PGE2 release; experiment: IL-1α-induced PGE2 release in human diploid lung fibroblasts (WI-38) (Assay 5); assay type: cell-based; settings: Homo sapiens, WI-38 cells, IL-1α 1 nM, overnight
In short: as §2

[4] = system: ovalbumin-sensitised mice; experiment: Ovalbumin-sensitised mice, a chronic model of asthma in vivo (Assay 8); settings: mean ± s.e.mean, oral gavage 20 days: 2 3 mg/kg/day, 32 30 mg/kg/day, budesonide 1 mg/kg/day, montelukast 10 mg/kg/day; for Eosinophil infiltration / IL-4 concentration / IL-13 concentration: BAL fluid day 55; for Eosinophil infiltration: sensitised 192.1 ± 33.2; for IL-4 concentration: sensitised 231.2 ± 62.4; for IL-13 concentration: sensitised 241.9 ± 89.3; for Histopathology score: lung remodelling, day 55, sensitised 541.6 ± 36.1; for Increase in penH: methacholine challenge, day 54, sensitised 193.0 ± 61.7
Method: Mice (BALB/c from Harlan-Olac) were sensitised to ovalbumin using two interperitoneal injections of ovalbumin (10 μg) and alum (200 μl) on day 1 and 14 followed by a 20 min, daily exposure to a ovalbumin aerosol (5%) on days 19-23 and then a thrice weekly 20 min, exposure to a ovalbumin aerosol (5%) on days 24-55. […] On day 54, mice were placed in BUXCO four chamber whole body plethysmographs and breathing-associated pressure changes were recorded which were then used to calculate enhanced pause (penH), a measurement of airways resistance, in response to a methacholine challenge.
On day 55 the mice were killed and brochoalveolar lavage (BAL) fluid was collected and cytospins prepared to measure eosinophil infiltration. In addition, concentrations of interleukin-4 (IL-4) and interleukin-13 (IL-13) were measured in the BAL fluid. Furthermore, lung samples were taken, examined by a histopathologist and scored using a grading system to describe the degree of lung remodelling.

Question: Which melting point does the source give for COC(=O)c1ccc(C(=O)CC(=O)/C=C/c2ccc(O)c(OC)c2)cc1 [Compound 57, Methyl 4-[(E)-1,3-dioxo-5-(4-hydroxy-3-methoxyphenyl)pent-4-enyl]benzoate] here?
Answer: 187 to 189 °C

Question: For COc1cc(/C=C/C(=O)CC(=O)c2ccc(C#N)cc2)ccc1O [Compound 101, (E)-1-(4-Cyanophenyl)-5-(4-hydroxy-3-methoxyphenyl)pent-4-ene-1,3-dione], which melting point is on record?
Answer: 128 to 130 °C

Question: Which melting point does the source give for COc1cc(/C=C/C(=O)CC(=O)c2ccc(Cl)cc2C)ccc1O [Compound 96, (E)-1-(4-Chloro-2-methylphenyl)-5-(4-hydroxy-3-methoxyphenyl)pent-4-ene-1,3-dione] here?
Answer: 78 °C

Question: With COc1cc(/C=C/C(=O)CC(=O)c2ccc(Cl)c(C)c2)ccc1O [Compound 95, (E)-1-(4-Chloro-3-methylphenyl)-5-(4-hydroxy-3-methoxyphenyl)pent-4-ene-1,3-dione] as the molecule, how does the melting point read?
Answer: 68 to 70 °C

Question: Which melting point does the source give for COc1cc(C=CC(=O)CC(=O)c2cccc(Cl)c2)ccc1O [Compound 54, 1-(3-Chlorophenyl)-5-(4-hydroxy-3-methoxyphenyl)pent-4-ene-1,3-dione] here?
Answer: 54 to 55 °C

Question: Which melting point does the source give for COc1cc(/C=C/C(=O)CC(=O)c2ccc3ccccc3c2)c(Cl)cc1O [Compound 105, (E)-5-(2-Chloro-4-hydroxy-5-methoxyphenyl)-1-(naphthalene-3-yl)pent-4-ene-1,3-dione] here?
Answer: 134 °C

Question: Which results are given for COc1cc(/C=C/C(=O)CC(=O)c2ccc(O)c(OC)c2)ccc1O [Compound 47, (E)-1,5-Bis-(4-hydroxy-3-methoxyphenyl)-pent-4-ene-1,3-dione]?
Answer: inhibition at 3 µM ([1]; 3 μM): 5%; inhibition at 30 µM ([1]; 30 μM): 23%; Decrease in cell viability (%) (WI-38 cells; 3 μM): 1%; Decrease in cell viability (%) (WI-38 cells; 30 μM): 11%; inhibition at 3 µM ([2]; 3 μM): 6%; inhibition at 30 µM ([2]; 30 μM): 33%; melting point: 170 to 172 °C; inhibition at 3 µM ([3]; 3 μM): 10%; inhibition at 30 µM ([3]; 30 μM): 109%

Question: With COc1cc(C=CC(=O)CC(=O)c2ccc(Cl)cc2Cl)ccc1O [Compound 56, 1-(2,4-Dichlorophenyl)-5-(4-hydroxy-3-methoxyphenyl)pent-4-ene-1,3-dione] as the molecule, how does the melting point read?
Answer: 86 to 87 °C

Question: For COc1cc(/C=C/C(=O)CC(=O)c2ccc(C(C)(C)C)cc2)ccc1O [Compound 102, (E)-1-(4-tert-Butylphenyl)-5-(4-hydroxy-3-methoxyphenyl)pent-4-ene-1,3-dione], which melting point is on record?
Answer: 87 to 88 °C

Question: For COc1cc(C=CC(=O)CC(=O)c2ccc(Cl)c(Cl)c2)ccc1O [Compound 55, 1-(3,4-Dichlorophenyl)-5-(4-hydroxy-3-methoxyphenyl)pent-4-ene-1,3-dione], which melting point is on record?
Answer: 78 to 80 °C

Question: For COc1cc(/C=C/C(=O)CC(=O)c2ccc(C)c(Cl)c2)ccc1O [Compound 98, (E)-1-(3-Chloro-4-methylphenyl)-5-(4-hydroxy-3-methoxyphenyl)pent-4-ene-1,3-dione], which melting point is on record?
Answer: 70 to 72 °C

Question: With COc1cc(/C=C/C(=O)CC(=O)C2CC2)ccc1O [Compound 37, (E)-1-Cyclopropyl-5-(4-hydroxy-3-methoxyphenyl)-pent-4-ene-1,3-dione] as the molecule, how does the melting point read?
Answer: 74.5 to 79 °C

Question: With COc1cc(/C=C/C(=O)CC(=O)c2ccccc2C)ccc1O [Compound 103, (E)-5-(4-Hydroxy-3-methoxyphenyl)-1-o-tolylpent-4-ene-1,3-dione] as the molecule, how does the melting point read?
Answer: 96 °C

Question: With COc1cc(/C=C/C(=O)C(C)(C)C(=O)C(C)(C)C)ccc1O [Compound 91, (E)-1-(4-Hydroxy-3-methoxyphenyl)-4,4,6,6-tetramethylhept-1-ene-3,5-dione] as the molecule, how does the melting point read?
Answer: 98 to 99 °C

Question: With COc1cc(C=CC(=O)CC(=O)c2ccc(Cl)cc2)ccc1O [Compound 53, 1-(4-Chlorophenyl)-5-(4-hydroxy-3-methoxyphenyl)pent-4-ene-1,3-dione] as the molecule, how does the melting point read?
Answer: 57 to 63 °C

Question: For COc1cc(/C=C/C(=O)CC(=O)c2cccc(C)c2)ccc1O [Compound 104, (E)-5-(4-Hydroxy-3-methoxyphenyl)-1-m-tolylpent-4-ene-1,3-dione], which melting point is on record?
Answer: 52 °C

Question: Which Eosinophil infiltration [4] does the source give for CCCC1O[C@@H]2C[C@H]3[C@@H]4CCC5=CC(=O)C=C[C@]5(C)[C@H]4[C@@H](O)C[C@]3(C)[C@]2(C(=O)CO)O1 (some centres unmarked) [budesonide, reference compound] here?
Answer: 38.4 ± 5.4% of control

Question: What about the IL-4 concentration [4] of the same molecule?
Answer: 144.2 ± 59.7% of control

Question: And the IL-13 concentration [4]?
Answer: 199.3 ± 110.1% of control

Question: What about the Histopathology score [4] of the same molecule?
Answer: 200.0 ± 27.6% of control

Question: And the “Increase in penH” value [4]?
Answer: 184.6 ± 27.7% of control

Question: With COc1cc(CCC(=O)CC(=O)c2ccccc2)ccc1OCCN.Cl as the molecule, how does the melting point read?
Answer: 80 °C

Question: Which melting point does the source give for COc1cc(/C=C/C(=O)CC(=O)c2ccccc2Cl)ccc1O [Compound 94, (E)-1-(2-Chlorophenyl)-5(4-hydroxy-3-methoxyphenyl)pent-4-ene-1,3-dione] here?
Answer: 89 °C

Question: Which melting point does the source give for COc1cc(/C=C/C(=O)CC(=O)Cc2ccccc2)ccc1O [Compound 60, (E)-6-(4-Hydroxy-3-methoxyphenyl)-1-phenyl-hex-5-ene-2,4-dione] here?
Answer: 106 °C

Question: With CCOc1cc(/C=C/C(=O)CC(=O)c2ccccc2)ccc1O [Compound 106, (E)-5-(3-Ethoxy-4-hydroxyphenyl)-1-phenylpent-4-ene-1,3-dione] as the molecule, how does the melting point read?
Answer: 110 to 112 °C

Question: Which results are given for CC(C)(O)c1ccccc1CC[C@@H](SCC1(CC(=O)O)CC1)c1cccc(/C=C/c2ccc3ccc(Cl)cc3n2)c1 [montelukast, reference compound]?
Answer: Eosinophil infiltration [4]: 124.3 ± 24.8% of control; IL-4 concentration [4]: 58.2 ± 37.2% of control; IL-13 concentration [4]: 73.2 ± 55.3% of control; Histopathology score [4]: 450.0 ± 38.25% of control; Increase in penH [4]: 187.6 ± 31.9% of control
